These are literature values, as cited in US6194433A, “Sexual dysfunction in females” (Cutler; Neal R., priority 1998, dated 2001).

The conditions of series [1]: Perreault et al., Br. J Pharmacol. 106:511 (1992).
The test system of series [2] is phosphodiesterase III. The following applies: Gristwood et al., Br. J. Pharmacol. 105:985 (1992).
For series [3] the following is noted: Kelso et al., J Cardiovasc. Pharmacol. 25:376 (1995).
Assay in series [4]: not given
This is another data set of the same source.

The conditions of series [5]: following coronary artery ligation; Jones et al., Br. J. Pharmacol. 108:1111 (1993).
The test system of series [6] is phosphodiesterase. The following applies: Frodsham et al., Eur. J. Pharmacol. 211:383 (1992).

In the case of `Cn1cc([S+](C)[O-])c(=O)c2ccc(F)cc21` (stereo not shown) [flosequinan, 7-fluoro-1-methyl-3-methylsulphinyl-4-quinolone], in series [1], the “effect in patients with end-stage failure” value is on record as “little effect”. Also, the “inhibition of phosphodiesterase III” value in series [2] is given as “selective inhibitor of phosphodiesterase III”. The “time of peak plasma concentrations of flosequinan” value (following oral administration) was 1 to 2 h. For the same molecule, for the setting “oral, single dose of fifty milligrams”, the mean absolute bioavailability is 72%. Moreover, in series [3], the “usefulness in the treatment of heart failure” value is “useful to some degree”. For the same molecule, in series [4] (many organic solvents), the “solubility in organic solvents” value is listed as “soluble in many organic solvents”. Further, the water solubility result in series [4] (water) is reported as “water soluble”. Also, in series [5], the “effect on mortality or arrhythmias” value is on record as “does not affect mortality or arrhythmias”. In addition, the “phosphodiesterase inhibition as relevant to efficacy in heart failure” value in series [6] was “questionable”.
For `Cn1cc(S(C)(=O)=O)c(=O)c2ccc(F)cc21` [metabolite], the “time of peak metabolite plasma levels” value (following oral dosage of flosequinan) is listed as “about seven”.
